# In patent US20120309773A1, “HETEROCYCLIC COMPOUNDS AS JANUS KINASE INHIBITORS” (priority 2009, published 2012):
row,SMILES,melting point [°C]
1,"O=C(NC1CC1)c1cc(Nc2nc(N3CCCC3c3ccccn3)nc3ccoc23)[nH]n1 (centres unmarked) [Compound 12E, N-cyclopropyl-5-(2-(2-(pyridin-2-yl)pyrrolidin-1-yl)furo[3,2-d]pyrimidin-4-ylamino)-1H-pyrazole-3-carboxamide]",238.4
2,"O=C(NC1CCC1)c1cc(Nc2nc(N3CCCC3c3ccccn3)nc3ccoc23)[nH]n1 (centres unmarked) [Compound 13E, N-cyclobutyl-5-(2-(2-(pyridin-2-yl)pyrrolidin-1-yl)furo[3,2-d]pyrimidin-4-ylamino)-1H-pyrazole-3-carboxamide]",250.1
3,"O=C(NC1CCC1)c1cc(Nc2nc(N3CCCC3c3ccccn3)nc3ccoc23)n[nH]1 (centres unmarked) [Compound 14F, N-cyclobutyl-3-(2-(2-(pyridin-2-yl)pyrrolidin-1-yl)furo[3,2-d]pyrimidin-4-ylamino)-1H-pyrazole-5-carboxamide]",274.3
4,"O=C(NC1CC1)c1cc(Nc2nc(N3CCC[C@H]3CO)nc3ccoc23)n[nH]1 [Compound 15C, (S)—N-cyclopropyl-3-(2-(2-(hydroxymethyl)pyrrolidin-1-yl)furo[3,2-d]pyrimidin-4-ylamino)-1H-pyrazole-5-carboxamide]",96.8
5,"CN(C)c1nc(Nc2cc(C(=O)NC3CCC3)n[nH]2)c2occc2n1 [Compound 19A, N-cyclobutyl-5-(2-(dimethylamino)furo[3,2-d]pyrimidin-4-ylamino)-1H-pyrazole-3-carboxamide]",270.8
